Measurements taken from patent US10174013B2, “Benzimidazole derivatives as kinase inhibitors” (SELVITA S.A., priority 2012, dated 2019).
Where a name gives a salt, the structure may show the parent alone. Read-outs that look alike come from different tables or passages of the source.

How the values were obtained:
[1] = target: Pim-2 (Homo sapiens (Human), UniProt Q9P1W9); experiment: ADP-Glo Kinase Assay, Pim-2; format: biochemical; settings: 1 μM compound; for inhibition at 1 µM: read-out: Pim-2 % INH (1 μM)
Pim-2, sequence (Q9P1W9 whole entry): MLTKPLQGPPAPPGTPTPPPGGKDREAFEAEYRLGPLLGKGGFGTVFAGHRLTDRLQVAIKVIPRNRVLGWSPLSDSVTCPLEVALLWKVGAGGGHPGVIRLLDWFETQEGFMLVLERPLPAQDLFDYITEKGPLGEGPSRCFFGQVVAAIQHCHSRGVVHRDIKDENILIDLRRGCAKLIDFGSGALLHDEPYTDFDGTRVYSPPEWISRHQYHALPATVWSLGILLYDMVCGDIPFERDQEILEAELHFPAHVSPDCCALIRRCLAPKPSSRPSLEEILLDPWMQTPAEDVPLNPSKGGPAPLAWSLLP
Protocol: (§1) Compounds of the present invention were tested for their inhibitory activity against Pim-1, Pim-2, Pim-3, Flt3 wt, Flt3 ITD, CDK2/E and DYRK1. The testing of the compounds was carried out using the ADP-Glo™ Kinase Assay from Promega Corporation (Madison, Wis., USA).
(§2) The ADP-Glo™ Kinase Assay is a luminescent ADP detection assay to measure kinase activity by quantifying the amount of ADP produced during a kinase reaction. The kinase assay is performed in kinase assay buffer (5 mM MOPS, pH 7.5, 5 mM MgCl2, 0.4 mM EDTA, 1.5 mM DTT). Test samples initially dissolved in DMSO at 10 mM were diluted with the assay buffer to 1000 nM. A 30 μL volume/well of a mixture of substrates containing ATP (final ATP concentration in each kinase assay was equal to its apparent ATP Km).
(§3) The assay was performed in two steps: first, after the kinase reaction, an equal volume of ADP-Glo™ Reagent was added to terminate the kinase reaction and deplete the remaining ATP. Second, the Kinase Detection Reagent was added to simultaneously convert ADP to ATP and allowed the newly synthesized ATP to be measured using a luciferase/luciferin reaction. The luminescent signal generated was proportional to the ADP concentration produced and was correlated with kinase activity. A microplate spectrophotometer (Synergy 2 multi-mode microplate reader [BioTek]) was used for detecting the luminescence. The data was normalized and the percent of inhibition was obtained according to the following equation: […]

[2] = test system: MV4-11 cells; experiment: Growth inhibition, MTS assay, MV4-11; format: cell-based, Human; settings: MTS cell viability, read-out: MV4-11 ED50
[3] = target: DYRK1 (Homo sapiens (Human), UniProt Q13627); experiment: ADP-Glo Kinase Assay, DYRK1; format: biochemical; settings: 1 μM compound; for inhibition at 1 µM: read-out: DYRK1A % INH (1 μM)
Summary of the method: (§4)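 Compounds were diluted in assay buffer to 1000 nM and incubated with kinase, substrate and ATP at apparent Km. Remaining ATP was depleted, ADP converted to ATP and detected by luciferase; percent inhibition came from normalized luminescence.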

[4] = target: Pim-1 (Homo sapiens (Human), UniProt P11309); experiment: ADP-Glo Kinase Assay, Pim-1; format: biochemical; settings: 1 μM compound; for inhibition at 1 µM: read-out: Pim-1 % INH (1 μM)
Pim-1, sequence (P11309 whole entry): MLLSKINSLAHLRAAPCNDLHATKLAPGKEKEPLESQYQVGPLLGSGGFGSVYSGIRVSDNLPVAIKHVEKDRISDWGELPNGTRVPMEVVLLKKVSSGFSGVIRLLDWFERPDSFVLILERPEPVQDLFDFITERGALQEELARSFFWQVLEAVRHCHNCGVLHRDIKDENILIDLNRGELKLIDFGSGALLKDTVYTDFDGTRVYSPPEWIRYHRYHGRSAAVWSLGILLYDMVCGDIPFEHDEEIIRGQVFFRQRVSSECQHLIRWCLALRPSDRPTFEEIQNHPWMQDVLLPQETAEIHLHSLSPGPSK
Summary of the method: as §4

[5] = target: Pim-3 (Homo sapiens (Human), UniProt Q86V86); experiment: ADP-Glo Kinase Assay, Pim-3; format: biochemical; settings: 1 μM compound; for inhibition at 1 µM: read-out: Pim-3 % INH (1 μM)
Protocol: as §1, §2, §3

[6] = test system: SW-480 cells; experiment: Growth inhibition, MTS assay, SW-480; format: cell-based, Human; settings: 72 hours, MTS cell viability, read-out: SW-480 ED50
Source text: (§5) The following cell lines, were obtained and used in tests as outlined below: • Human myelomonocytic, biphenotypic leukemia MV4-11 cells (harboring a Flt3-ITD mutation); • Human Acute Myeloid Leukemia MOLM16 cells; • Human Acute Myeloid Leukemia MOLM13 cells (harboring a Flt3-ITD mutation); • Human Myeloid Leukemia KG-1 cells; • Human erythroleukemia HEL92 cells; • Human mantle cell lymphoma Jeko-1 cells; • Human hepatocellular carcinoma HepG2 cells; and • Human colon adenocarcinoma SW-480 cells.
(§6) The assays were carried out according to the following protocol, which is described as an example for the MV4-11 cells:
(§7) Ten thousand MV4-11 cells were inoculated into each well of a 96-well microplate (manufactured by Corning Corp.) using Iscove's MDM medium (culture medium) containing 10% fetal calf serum (FCS). The same day, a dimethyl sulfoxide (DMSO) solution of each test compound prepared in a concentration of 10 mmol/L was further diluted with DMSO to the desired concentrations (0.1, 0.5, 1, 2.5, 5 and 10 micromol/L), and the diluted solution was added to each well. The individual wells were further cultured in 5% carbon dioxide at 37° C. for 72 hours. […] Briefly, 10 μl MTS (3-(4,5-Dimethyl-2-thiazolyl)-5-(carboxymethoxyphenyl)-2-(4-sulfophenyl)-2H-tetrazolium was added to each well, and culturing was performed in 5% carbon dioxide at 37° C. for 2 hours. After this incubation and using a microplate spectrophotometer (Synergy 2 multi-mode microplate reader (BioTek)), the absorbance of each well was measured at 490 nm. The value for cells not incubated with a test compound was designated as 100%. By comparing these values with the absorbance difference obtained at the well in which each test compound was added, the cell viability (% viability) after treatment with the test compound was calculated.

[7] = test system: Jeko-1 cells; experiment: Growth inhibition, MTS assay, Jeko-1; format: cell-based, Human; settings: 72 hours, MTS cell viability, read-out: Jeko-1 ED50
Source text: as §5, §6, §7

[8] = test system: HepG2 cells; experiment: Growth inhibition, MTS assay, HepG2; format: cell-based, Human; settings: MTS cell viability, read-out: HepG2 ED50
[9] = test system: HEL92 cells; experiment: Growth inhibition, MTS assay, HEL92; format: cell-based, Human; settings: MTS cell viability, read-out: HEL92 ED50
[10] = target: CDK2/E (Homo sapiens (Human), UniProt P24941); experiment: ADP-Glo Kinase Assay, CDK2/E; format: biochemical; settings: 1 μM compound; for inhibition at 1 µM: read-out: CDK2/E % INH (1 μM)
Summary of the method: as §4

[11] = target: FLT3wt (Homo sapiens (Human), UniProt P36888); experiment: ADP-Glo Kinase Assay, Flt3 wt; format: biochemical; settings: 1 μM compound; for inhibition at 1 µM: read-out: Flt3wt % INH (1 μM)
FLT3wt, sequence (P36888 27-993): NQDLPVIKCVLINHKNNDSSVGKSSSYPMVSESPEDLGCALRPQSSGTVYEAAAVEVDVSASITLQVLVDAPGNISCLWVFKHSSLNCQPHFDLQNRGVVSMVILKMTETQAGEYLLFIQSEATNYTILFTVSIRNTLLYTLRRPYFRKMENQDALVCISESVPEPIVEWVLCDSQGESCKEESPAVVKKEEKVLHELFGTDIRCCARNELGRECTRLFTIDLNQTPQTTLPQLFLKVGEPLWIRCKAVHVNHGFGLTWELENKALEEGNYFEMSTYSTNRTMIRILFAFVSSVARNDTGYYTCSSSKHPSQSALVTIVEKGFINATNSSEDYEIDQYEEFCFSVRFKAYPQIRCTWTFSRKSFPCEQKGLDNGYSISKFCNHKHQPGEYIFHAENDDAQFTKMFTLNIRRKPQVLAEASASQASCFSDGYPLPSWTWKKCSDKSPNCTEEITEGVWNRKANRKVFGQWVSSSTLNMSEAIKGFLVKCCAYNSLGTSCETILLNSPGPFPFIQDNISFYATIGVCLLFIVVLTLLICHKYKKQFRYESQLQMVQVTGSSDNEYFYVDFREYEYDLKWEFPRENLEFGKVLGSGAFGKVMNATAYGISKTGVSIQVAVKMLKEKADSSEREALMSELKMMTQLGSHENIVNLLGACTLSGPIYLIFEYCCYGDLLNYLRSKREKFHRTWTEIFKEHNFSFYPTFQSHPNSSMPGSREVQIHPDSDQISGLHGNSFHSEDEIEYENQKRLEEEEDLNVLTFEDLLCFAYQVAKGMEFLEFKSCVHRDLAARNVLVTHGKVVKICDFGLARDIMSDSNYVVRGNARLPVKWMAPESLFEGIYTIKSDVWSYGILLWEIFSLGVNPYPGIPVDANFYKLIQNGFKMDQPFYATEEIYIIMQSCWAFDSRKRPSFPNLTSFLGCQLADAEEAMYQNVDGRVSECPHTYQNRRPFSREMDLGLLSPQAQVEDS
Summary of the method: as §4

[12] = test system: MV4-11 xenograft; experiment: MV4-11 xenograft in immunocompromised mice; format: in vivo
Source text: Several compounds of the present invention have been studied in a xenograft in mice, an in vivo tumor transplantation model used to investigate the factors involved in malignant transformation, invasion and metastasis, as well as to examine response to therapy. For the purpose of acceptance of donor leukemic cells (MV4-11 or MOLM16 cells), immunocompromised mice were used, namely particularly severely compromised immunodeficient mice (NOD/scid, SCID/beige). When tumors developed size of approx. 50-200 mm^3, the compounds as indicated below in Tables 3 and 3a were administered orally every day for 2-3 weeks, in once a day (QD) or twice a day (BID) schedule. During the course of the experiment, the mice were monitored and the following two parameters were measured: the tumor growth inhibition (TGI) factor as a measure of therapeutic efficacy and the body weight change (ΔBW) factor as a measure of possible compound toxicity. The results are depicted in Tables 3 and 3a.
Next, compound 26A was evaluated in a xenograft study of acute myeloid leukemia (MV-4-11), alone or in a combinational treatment with Cytarabine in vivo (Table 3b; FIG. 6). Compound 26A was tested in two doses (50 and 25 mg/kg) and administered twice a day (BID); Cytarabine was administered at dose of 50 mg/kg three times in a week (TIW). During 15 days of compound administration dose-dependent anti-cancer activity of compound 26A (administered alone) was shown. Tumor growth inhibition reached −82% and −77%, respectively.

[13] = MV4-11 xenograft, oral, 150 mg/Kg QD
[14] = MV-4-11 xenograft, Cytarabine 50 mg/Kg TIW

Compound | inhibition at 1 µM [1] | IC50 ([2]; Homo sapiens, MV4-11, 72 h) | inhibition at 1 µM [3] | inhibition at 1 µM [4] | inhibition at 1 µM [5] | IC50 ([6]; Homo sapiens, SW480) | IC50 ([8]; Homo sapiens, HepG2, 72 h) | inhibition at 1 µM [10] | inhibition at 1 µM [11] | IC50 ([2]; 72 hours) | Pim-1 % INH (1 μM) [4] | IC50 ([8]; 72 hours) | CDK2/E % INH (1 μM) [10] | Flt3wt % INH (1 μM) [11] | IC50 ([7]; Homo sapiens, JeKo-1) | IC50 ([9]; Homo sapiens, 72 h) | IC50 ([9]; 72 hours) | also measured
CC(C)n1c(N2CC[C@H](N)C2)nc2c([N+](=O)[O-])c(Br)c(Br)cc21 [Example 1AZ] | – | – | – | – | – | – | – | – | – | 1100 nM | >95% | 2200 nM | 38% | 48% | – | – | 2.6 µM | Pim-2 % INH (1 μM) [1]: 70%; TGI (tumor growth inhibition) [12, 13]: 76%; ΔBW (body weight change) [12, 13]: −0.2%; TGI (tumor growth inhibition) ([12]; MV4-11 xenograft, oral, doses as in Table 3): more than 70%; DYRK1A % INH (1 μM) [3]: 72%; Pim-3 % INH (1 μM) [5]: 94%
Nc1ccn([C@@H]2O[C@H](CO)[C@@H](O)[C@@H]2O)c(=O)n1 [Cytarabine, cytarabine, reference compound] | – | – | – | – | – | – | – | – | – | – | – | – | – | – | – | – | – | TGI (tumor growth inhibition) [12, 14]: 60%; ΔBW (body weight change) [12, 14]: −2%
NCCCNc1nc2c([N+](=O)[O-])c(Br)c(Br)cc2n1CC1CC1 [Example 1AB] | – | – | – | – | – | – | – | – | – | 2800 nM | >95% | 2300 nM | <5% | <5% | – | – | 5.8 µM | Pim-2 % INH (1 μM) [1]: 46%; Pim-3 % INH (1 μM) [5]: 87%; IC50 [6]: 3.2 µM; IC50 [7]: 1200 nM
CC(C)n1c(NCCCN)nc2c([N+](=O)[O-])c(Br)c(Br)cc21 [Example 1L] | 58% | 1200 nM | 47% | > 95% | > 95% | 3.3 µM | 1600 nM | 32% | 21% | – | – | – | – | – | – | 5.7 µM | – | –
CCn1c(N2CCCC(N)C2)nc2c([N+](=O)[O-])c(Br)c(Br)cc21.Cl (stereo not drawn) [Example 1F] | – | – | – | – | – | – | – | – | – | 2300 nM | 90% | 3300 nM | <5% | 6% | – | – | 5.0 µM | Pim-2 % INH (1 μM) [1]: 36%; DYRK1A % INH (1 μM) [3]: 20%; Pim-3 % INH (1 μM) [5]: 83%; IC50 [6]: 3.3 µM
CCn1c(NC2CCC(N)CC2)nc2c([N+](=O)[O-])c(Br)c(Br)cc21 (stereo not drawn) [Example 1H] | 25% | – | – | – | 38% | 3.4 µM | – | – | – | 2300 nM | 58% | 2700 nM | <5% | <5% | – | – | 7.6 µM | DYRK1A % INH (1 μM) [3]: 9%

Second part, led by results:

inhibition at 1 µM [1] | IC50 ([2]; Homo sapiens, MV4-11, 72 h) | inhibition at 1 µM [3] | inhibition at 1 µM [4] | inhibition at 1 µM [5] | IC50 ([6]; Homo sapiens, SW480) | IC50 ([8]; Homo sapiens, HepG2, 72 h) | inhibition at 1 µM [10] | inhibition at 1 µM [11] | IC50 ([2]; 72 hours) | Pim-1 % INH (1 μM) [4] | IC50 ([8]; 72 hours) | CDK2/E % INH (1 μM) [10] | Flt3wt % INH (1 μM) [11] | Compound | IC50 ([7]; Homo sapiens, JeKo-1) | IC50 ([9]; Homo sapiens, 72 h) | IC50 ([9]; 72 hours) | also measured
37% | 600 nM | 35% | > 95% | > 95% | 3.3 µM | 1500 nM | < 5% | 9% | – | – | – | – | – | CCCn1c(N2CCCC(N)C2)nc2c([N+](=O)[O-])c(Br)c(Br)cc21 (stereo not drawn) [Example 1U] | 1800 nM | 4.7 µM | – | –
63% | 5500 nM | 72% | 79% | 56% | 1.8 µM | 900 nM | 15% | 25% | – | – | – | – | – | CC(C)=CCn1c(N2CCNCC2)nc2c([N+](=O)[O-])c(Br)c(Br)cc21 [Example 2E, 5,6-dibromo-1-(3-methylbut-2-en-1-yl)-4-nitro-2-(piperazin-1-yl)-1H-1,3-benzodiazole hydrochloride] | 1600 nM | 5.4 µM | – | –
– | 7900 nM | – | – | – | 6 µM | > 10000 nM | – | – | – | – | – | – | – | CCn1c(NC2CCC(O)CC2)nc2c([N+](=O)[O-])c(Br)c(Br)cc21 (stereo not drawn) [Example 22B, 4-[(5,6-dibromo-1-ethyl-4-nitro-1H-1,3-benzodiazol-2-yl)amino]cyclohexan-1-ol] | 3000 nM | 8.8 µM | – | –
18% | 3700 nM | – | 74% | 29% | 4.7 µM | 5000 nM | < 5% | < 5% | – | – | – | – | – | CCn1c(N2CCCN(C)CC2)nc2c([N+](=O)[O-])c(Br)c(Br)cc21 [Example 22M, 5,6-dibromo-1-ethyl-2-(4-methyl-1,4-diazepan-1-yl)-4-nitro-1H-1,3-benzodiazole] | – | 6.5 µM | – | –
– | 1700 nM | – | 67% | 92% | 6.9 µM | 6400 nM | < 5% | < 5% | – | – | – | – | – | CCn1c(N2CCCC2CN)nc2c([N+](=O)[O-])c(Br)c(Br)cc21 (stereo not drawn) [Example 1Z] | 5600 nM | – | – | –
– | 700 nM | 11% | > 95% | > 95% | 3.1 µM | 900 nM | < 5% | < 5% | – | – | – | – | – | CC(C)Cn1c(N2CCCC(N)C2)nc2c([N+](=O)[O-])c(Br)c(Br)cc21 (stereo not drawn) [Example 1V] | 2900 nM | 5.6 µM | – | –
